Laboratory results from patent publication US9359404B2, “Methods and products for treating preeclampsia and modulating blood pressure” (Scott & White Healthcare, priority 2011, dated 2016).
Ends that are not written are not given here.

Key:
[1] = system: pregnant mice; test: Systolic blood pressure (tail-cuff plethysmography) in pregnant mice given TLR agonists with or without TPP; type: in vivo, C57BL/6 mice; details: pregnant mice treated with TLR agonist alone, day 17
Experimental: (§1) Experimental Design: C57BL/6 female mice were bred with male C57BL/6 mice. At day 13 mice were injected IP with vehicle, Poly I:C (SIGMA PO913 50 mg), CLO097 (Invivogen tlrl-C95-5), or R837 (Invivogen tlrl imq) with or without TPP (FRIMAVLAS (SEQ ID NO: 5). Mice were injected a total of 3 times, every other day. At day 18 mice were euthanized, uterus/pups, blood, blood vessels, and spleen were removed.
Blood Pressure: Systolic arterial blood pressure was measured by tail-cuff plethysmography. […] were trained for three days prior to data collection. Animals were warmed to 32° C. and measurements were taken using an IITC Model 59 amplifier (Woodland Hills, Calif.), a system which correlates well with telemetry measurements of systolic blood pressure.
Pregnant mice (P) were treated with one of three TLR agonists to induce a physiological condition which mimics preeclampsia. Poly I:C is a TLR3 agonist and is well established in inducing characteristics of preeclampsia in mice. R837 is a […] activator of TLR7 but not TLR8. Similar to Poly I:C R837 induces characteristics of preeclampsia in mice. CLO097 is a […] that activates TLR7 and TLR8. While CLO097 induces some of the characteristics of preeclampsia the response is somewhat muted. […] The blood pressure of each mouse was measured on day 17 following treatment.

[2] = system: Aortic rings; test: Vasodilation/endothelial function of aortic rings (isometric force transducer); type: in vivo; details: vessels of TLR agonist-treated pregnant mice, phenylephrine contraction, acetylcholine relaxation
Experimental: Experimental Design: Mice were treated as described in Example 1.
Vasodilation/Endothelial Function: Aortic rings were connected to an isometric force transducer in a custom-made 15-ml organ chamber filled with 37° C. physiological salt solution (119 mM NaCl, 4.7 mM KCl, 25 mM NaHCO3, 1.18 mM KH2PO4, 1.17 mM MgSO4-7H2O, 11.1 mM Dextrose, 2.5 mM CaCl2) with 95% O2-5% CO2. All experiments were performed in the presence of indomethacin […] to inhibit prostacyclin production by cyclooxygenase. Passive tension on the vessels was set at 400 mg based on previously generated length-tension curves, and isometric force generation was recorded continuously with a PowerLab system (AD Instruments, Colorado Springs, Colo.). After a 60-min equilibration period, vessels were contracted with phenylephrine […] and repeated until reproducible contractions were obtained. […] was administered to test the functional integrity of endothelium as measured by a relaxation response. Concentration-response curves were obtained in a half-log, cumulative fashion in response to acetylcholine (1 nM to […]) following contraction to an EC70 concentration of phenylephrine. Relaxation responses were expressed as percent relaxation from phenylephrine-induced contraction. […]

[3] = system: splenic CLIP+γδ T and B cells; test: Splenic CLIP+ γδ T cells and B cells after TLR3 or TLR7 activation in pregnant mice (flow cytometry); type: in vivo; details: for splenic CLIP+γδ T cells: pregnant mice treated with TLR agonist versus vehicle-treated pregnant controls
Description: Next, it was important to determine whether this effect also happens in vivo. Therefore, we tested whether TLR activation via TLR3 or TLR7, which cause PE in mice only if they are pregnant, increases splenic CLIP+γδ T and B cells in mice.
It was shown that MHC class II engagement, in the absence of antigen receptor engagement, can lead to the death of APCs including B cells. Since TLR-mediated activation of B cells results in ectopic CLIP expression (FIGS. 11 and 12) we sought to determine whether CLIP serves as a negative regulator of B cell death. To test this mouse splenic B cells from C57B16 mice or CLIP KO mice were activated, with or without a TLR agonist, for 48 hrs. […] Splenocytes were analyzed by flow cytometry.

[4] = system: CLIP on the surface of B220 cells; test: Immune cell markers on splenocytes: CLIP on B220 cells; type: in vivo; details: pregnant mice, Poly I:C alone
Experimental: Experimental Design: Mice were treated as described in Example 1. Splenocytes were isolated and stained for CD3, CD4, CD8, CD11b, Ly6G/C, CD25, FoxP3, CD19, B220, CD5, CLIP, and Gamma Delta TCR.
FIG. 9 is a set of graphs that depicts the removal of all CLIP (9A) versus bright CLIP (9B) and FIG. 9C from the surface of B220 cells. […] TLR agonists include CLO097; R837, and Poly I:C. FIG. 9C depicts the percentage of CLIP+cells resulting from Poly I:C stimulation with and without TPP.

[5] = system: pregnant mice; test: Total number of pups and malformed pups at day 18; type: in vivo, C57BL/6 mice; details: day 18, versus normal pregnancies or pregnancies treated with TLR agonists
Experimental: as §1
The number of pups and malformed pups was relatively consistent across all groups at this time point.

[6] = system: pregnant mice with PE induced by TLR3 or TLR7 activation; test: Prevention of TLR3/TLR7-induced PE in pregnant mice, daily TPP gestational days 13-17; type: in vivo
Description: FIG. 14 is a series of graphs depicting results from the daily administration of the CLIP-displacing peptide TPP. Daily administration of the CLIP-displacing peptide TPP (“Pep”-gestational days 13-17) prevented the development of hypertension, endothelial dysfunction, proteinuria, fetal demise, increased γδT cells, and decreased regulatory T cells in pregnant (P) mice treated with the TLR7 agonist R837 (PR mice) or the TLR3 agonist poly I:C (PPIC mice) on gestational days 13, 15, and 17.
TPP was utilized to displace CLIP on immune cells in mice during pregnancy.

Compound	blood pressure [1]	relaxation response [2]	splenic CLIP+γδ T cells [3]	CLIP+ B cells [4]	B cell death (splenic B cells) ([3]; PE mice versus normal pregnancy)	number of malformed pups [5]	total number of pups [5]	safety, side effects on the mother or the pups [6]
CC(C)Cn1cnc2c(N)nc3ccccc3c21 [R837]	significantly increased blood pressure	relaxation response is delayed	increased significantly	–	–	–	–	–
Poly I:C	significantly increased blood pressure	relaxation response is delayed	increased significantly	significant increase	did not experience the increase in B cell death	–	–	–
FRIMAVLAS [TPP, FRIMAVLAS]	–	–	–	–	–	caused no increase	caused no increase	safe in mice and has no side effects on the mother or the pups
